In brackets after ≈: the same amount, converted by molar mass.
test system: HCT-116; experiment: cells; settings: Homo sapiens, HCT-116, 72 h
Description: Antiproliferative activity against human HCT-116 cells incubated for 72 hrs by MTT assay

Structure (SMILES) | IC50
CCCCC(=O)Nc1nnc(CCCCc2ccc(NC(=O)Cc3cccc(OCCC)c3)nn2)s1 | 820 nM
C=CCCCCOc1cccc(CC(=O)Nc2nnc(CCCCc3ccc(NC(=O)CCC=C)nn3)s2)c1 | 660 nM
CCCCC(=O)Nc1nnc(CCCCc2ccc(NC(=O)Cc3cccc(OC)c3)nn2)s1 | 2460 nM
C=CCCC(=O)Nc1nnc(CCCCc2ccc(NC(=O)Cc3cccc(O)c3)nn2)s1 | 2630 nM
C=CCCOc1cccc(CC(=O)Nc2nnc(CCCCc3ccc(NC(=O)CCC=C)nn3)s2)c1 | 1520 nM
CCCCOc1cccc(CC(=O)Nc2ccc(CCCCc3nnc(NC(=O)C4CC4)s3)nn2)c1 | 2640 nM
C=CCCCOc1cccc(CC(=O)Nc2ccc(CCCCc3nnc(NC(=O)CCC=C)s3)nn2)c1 | 920 nM
C=CCCCCOc1cccc(CC(=O)Nc2ccc(CCCCc3nnc(NC(=O)CCC=C)s3)nn2)c1 | 310 nM
C=CCCCCOc1cccc(CC(=O)Nc2ccc(CCCCc3nnc(NC(=O)C4CC(F)(F)C4)s3)nn2)c1 | 1680 nM
CCCCOc1cccc(CC(=O)Nc2ccc(OC3CC4CCC(C3)N4c3nnc(NC(=O)CCCC)s3)nn2)c1 (stereo not given) | 16900 nM
C#CCOc1cccc(CC(=O)Nc2ccc(CCCCc3nnc(NC(=O)CCCC)s3)nn2)c1 | > 10000 nM
CCCCCCCOc1cccc(CC(=O)Nc2ccc(CCCCc3nnc(NC(=O)CCCC)s3)nn2)c1 | 1960 nM
C#CCCC(=O)Nc1nnc(CCCCc2ccc(NC(=O)Cc3cccc(O)c3)nn2)s1 | 3440 nM
CCCCOc1cccc(CC(=O)Nc2ccc(CCCCc3nnc(NC(=O)CCCC)s3)nn2)c1 | 380 nM
C=CCCOc1cccc(CC(=O)Nc2ccc(CCCCc3nnc(NC(=O)CC=C)s3)nn2)c1 | 1600 nM
CCCCC(=O)Nc1nnc(CCCCc2ccc(NC(=O)Cc3cccc(OCC)c3)nn2)s1 | 8540 nM

Structure (SMILES) | IC50
C#CCCC(=O)Nc1nnc(CCCCc2ccc(NC(=O)Cc3cccc(OCCC=C)c3)nn2)s1 | 2250 nM
C=CCCOc1cccc(CC(=O)Nc2nnc(CCCCc3ccc(NC(=O)CC=C)nn3)s2)c1 | 24900 nM
C#CCCC(=O)Nc1nnc(CCCCc2ccc(NC(=O)Cc3cccc(OC(=O)CCC#C)c3)nn2)s1 | 5260 nM
C=CCCOc1cccc(CC(=O)Nc2ccc(CCCCc3nnc(NC(=O)CCC=C)s3)nn2)c1 | 1370 nM
CCCCCOc1cccc(CC(=O)Nc2ccc(CCCCc3nnc(NC(=O)C4CC4)s3)nn2)c1 | 4030 nM
C=CCCC(=O)Nc1nnc(CCCCc2ccc(NC(=O)Cc3cccc(OC(=O)CCC=C)c3)nn2)s1 | 7900 nM
C=CCCCOc1cccc(CC(=O)Nc2nnc(CCCCc3ccc(NC(=O)CC=C)nn3)s2)c1 | 29400 nM
C=CCCCOc1cccc(CC(=O)Nc2nnc(CCCCc3ccc(NC(=O)CCC=C)nn3)s2)c1 | 3700 nM
CCCCCCOc1cccc(CC(=O)Nc2ccc(CCCCc3nnc(NC(=O)CCCC)s3)nn2)c1 | 380 nM
CCCCCCOc1cccc(CC(=O)Nc2ccc(CCCCc3nnc(NC(=O)C4CC(F)(F)C4)s3)nn2)c1 | 1230 nM
CCCCCOc1cccc(CC(=O)Nc2ccc(CCCCc3nnc(NC(=O)CCCC)s3)nn2)c1 | 2180 nM
CCCCOc1cccc(CC(=O)Nc2ccc(CCCCc3nnc(NC(=O)C4CC(F)(F)C4)s3)nn2)c1 | 1860 nM
C=CCCOc1cccc(CC(=O)Nc2ccc(N3CCC(Nc4nnc(NC(=O)CCC=C)s4)CC3)nn2)c1 | 430 nM
C=CCCCCOc1cccc(CC(=O)Nc2ccc(CCCCc3nnc(N)s3)nn2)c1 | 1090 nM
CCCCCCCCOc1cccc(CC(=O)Nc2ccc(CCCCc3nnc(NC(=O)CCCC)s3)nn2)c1 | 210 nM
CCCCC(=O)Nc1nnc(CCCCc2ccc(NC(=O)Cc3cccc(O)c3)nn2)s1 | 6820 nM

test system: HCT-116; experiment: Antitumor activity against human HCT-116 cells xenografted in BALB/c nude mouse assessed as tumor growth inhibition at 100 mg/kg, ip for 20 days relative to control; format: functional; settings: Mus musculus, HCT-116, 480 h, time 20 day, read-out: TGI

Structure (SMILES) | inhibition in vivo at 100 mg/kg
O=C(Cc1ccccc1)Nc1nnc(CCSCCc2nnc(NC(=O)Cc3ccccc3)s2)s1 | 31.3%

target: T1, Glutaminase kidney isoform, mitochondrial (Homo sapiens) (UniProt O94925); experiment: not given; settings: not given
T1 sequence (whole entry): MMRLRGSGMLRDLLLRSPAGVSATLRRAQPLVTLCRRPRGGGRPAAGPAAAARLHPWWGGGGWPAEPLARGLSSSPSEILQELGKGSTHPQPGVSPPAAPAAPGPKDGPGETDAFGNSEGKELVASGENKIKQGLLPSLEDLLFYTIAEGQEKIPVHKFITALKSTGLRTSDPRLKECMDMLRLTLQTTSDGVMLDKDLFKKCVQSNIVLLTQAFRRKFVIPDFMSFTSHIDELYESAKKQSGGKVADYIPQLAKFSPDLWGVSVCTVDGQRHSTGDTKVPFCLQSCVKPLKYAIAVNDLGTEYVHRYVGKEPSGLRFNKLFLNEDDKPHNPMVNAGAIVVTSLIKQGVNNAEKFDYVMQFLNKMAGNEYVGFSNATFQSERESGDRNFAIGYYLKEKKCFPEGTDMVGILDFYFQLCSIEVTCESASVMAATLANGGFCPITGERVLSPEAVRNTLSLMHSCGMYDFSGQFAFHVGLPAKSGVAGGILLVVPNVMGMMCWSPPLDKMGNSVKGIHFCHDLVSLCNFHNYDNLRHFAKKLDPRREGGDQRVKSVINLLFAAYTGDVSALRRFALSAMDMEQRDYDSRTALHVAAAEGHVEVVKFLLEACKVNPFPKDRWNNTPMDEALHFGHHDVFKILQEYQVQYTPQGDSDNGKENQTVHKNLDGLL

Structure (SMILES) | ΔTm
C=CCCCCOc1cccc(CC(=O)Nc2ccc(CCCCc3nnc(NC(=O)CCC=C)s3)nn2)c1 | 13.9 °C

test system: not listed separately; experiment: Intrinsic aqueous solubility of the compound in PBS buffer at pH 7.4 measured after 72 hrs by LC-MS analysis; format: physicochemical; settings: read-out: Intrinsic_solubility

Structure (SMILES) | solubility at 72 h
CCCCOc1cccc(CC(=O)Nc2ccc(CCCCc3nnc(NC(=O)C4CC4)s3)nn2)c1 | 0.71 µg/mL (≈ 1.4 µM)
C=CCCCCOc1cccc(CC(=O)Nc2ccc(CCCCc3nnc(NC(=O)CCC=C)s3)nn2)c1 | 3.6 µg/mL (≈ 6.56 µM)
CCCCCOc1cccc(CC(=O)Nc2ccc(CCCCc3nnc(NC(=O)C4CC4)s3)nn2)c1 | 0.52 µg/mL (≈ 0.995 µM)
CCCCCCOc1cccc(CC(=O)Nc2ccc(CCCCc3nnc(NC(=O)C4CC(F)(F)C4)s3)nn2)c1 | 4.1 µg/mL (≈ 6.99 µM)
CCCCOc1cccc(CC(=O)Nc2ccc(CCCCc3nnc(NC(=O)C4CC(F)(F)C4)s3)nn2)c1 | 6.23 µg/mL (≈ 11.2 µM)

test system: not listed separately; experiment: Metabolic stability in human liver microsomes assessed as clearance measured upto 120 mins by LC-MS/MS analysis; format: ADME, Microsome; settings: read-out: CLH

Structure (SMILES) | microsomal CLint
C=CCCCCOc1cccc(CC(=O)Nc2ccc(CCCCc3nnc(NC(=O)CCC=C)s3)nn2)c1 | 138 µL/min/mg
C=CCCCCOc1cccc(CC(=O)Nc2ccc(CCCCc3nnc(NC(=O)C4CC(F)(F)C4)s3)nn2)c1 | 39.5 µL/min/mg
CCCCOc1cccc(CC(=O)Nc2ccc(CCCCc3nnc(NC(=O)CCCC)s3)nn2)c1 | 63.5 µL/min/mg
CCCCCCOc1cccc(CC(=O)Nc2ccc(CCCCc3nnc(NC(=O)CCCC)s3)nn2)c1 | 134 µL/min/mg
C=CCCOc1cccc(CC(=O)Nc2ccc(N3CCC(Nc4nnc(NC(=O)CCC=C)s4)CC3)nn2)c1 | 50.2 µL/min/mg

test system: not listed separately; experiment: Metabolic stability in human liver microsomes assessed as half life by LC-MS/MS analysis; format: ADME, Microsome; settings: not given

Structure (SMILES) | half-life
C=CCCCCOc1cccc(CC(=O)Nc2ccc(CCCCc3nnc(NC(=O)CCC=C)s3)nn2)c1 | 25.1 min
C=CCCCCOc1cccc(CC(=O)Nc2ccc(CCCCc3nnc(NC(=O)C4CC(F)(F)C4)s3)nn2)c1 | 87.8 min
CCCCOc1cccc(CC(=O)Nc2ccc(CCCCc3nnc(NC(=O)CCCC)s3)nn2)c1 | 54.6 min
CCCCCCOc1cccc(CC(=O)Nc2ccc(CCCCc3nnc(NC(=O)CCCC)s3)nn2)c1 | 26 min
C=CCCOc1cccc(CC(=O)Nc2ccc(N3CCC(Nc4nnc(NC(=O)CCC=C)s4)CC3)nn2)c1 | 68.6 min

target: T2, Glutaminase kidney isoform, mitochondrial (Homo sapiens, UniProt O94925); experiment: Inhibition of GLS1 (unknown origin) preincubated for 10 mins followed by glutamine addition measured after 60 mins; settings: not given
T2 sequence (O94925 whole entry): T1 sequence (whole entry)

Structure (SMILES) | IC50
CCCCC(=O)Nc1nnc(CCCCc2ccc(NC(=O)Cc3cccc(OCCC)c3)nn2)s1 | 130 nM
C=CCCCCOc1cccc(CC(=O)Nc2nnc(CCCCc3ccc(NC(=O)CCC=C)nn3)s2)c1 | 34 nM
CCCCC(=O)Nc1nnc(CCCCc2ccc(NC(=O)Cc3cccc(OC)c3)nn2)s1 | 190 nM
C=CCCC(=O)Nc1nnc(CCCCc2ccc(NC(=O)Cc3cccc(O)c3)nn2)s1 | 530 nM
C=CCCOc1cccc(CC(=O)Nc2nnc(CCCCc3ccc(NC(=O)CCC=C)nn3)s2)c1 | 240 nM
CCCCOc1cccc(CC(=O)Nc2ccc(CCCCc3nnc(NC(=O)C4CC4)s3)nn2)c1 | 160 nM
C=CCCCOc1cccc(CC(=O)Nc2ccc(CCCCc3nnc(NC(=O)CCC=C)s3)nn2)c1 | 79 nM
C=CCCCCOc1cccc(CC(=O)Nc2ccc(CCCCc3nnc(NC(=O)CCC=C)s3)nn2)c1 | 25.1 nM
C=CCCCCOc1cccc(CC(=O)Nc2ccc(CCCCc3nnc(NC(=O)C4CC(F)(F)C4)s3)nn2)c1 | 32 nM
CCCCOc1cccc(CC(=O)Nc2ccc(OC3CC4CCC(C3)N4c3nnc(NC(=O)CCCC)s3)nn2)c1 (stereo not given) | > 20000 nM
C#CCOc1cccc(CC(=O)Nc2ccc(CCCCc3nnc(NC(=O)CCCC)s3)nn2)c1 | 1050 nM
CCCCCCCOc1cccc(CC(=O)Nc2ccc(CCCCc3nnc(NC(=O)CCCC)s3)nn2)c1 | 17 nM
C#CCCC(=O)Nc1nnc(CCCCc2ccc(NC(=O)Cc3cccc(O)c3)nn2)s1 | 580 nM
CCCCOc1cccc(CC(=O)Nc2ccc(CCCCc3nnc(NC(=O)CCCC)s3)nn2)c1 | 27 nM
C=CCCOc1cccc(CC(=O)Nc2ccc(CCCCc3nnc(NC(=O)CC=C)s3)nn2)c1 | 110 nM
CCCCC(=O)Nc1nnc(CCCCc2ccc(NC(=O)Cc3cccc(OCC)c3)nn2)s1 | 220 nM
C#CCCC(=O)Nc1nnc(CCCCc2ccc(NC(=O)Cc3cccc(OCCC=C)c3)nn2)s1 | 290 nM
C=CCCOc1cccc(CC(=O)Nc2nnc(CCCCc3ccc(NC(=O)CC=C)nn3)s2)c1 | > 5000 nM

Structure (SMILES) | IC50
CCCCC(=O)Nc1nnc(CCCCc2ccc(NC(=O)Cc3cccc(N)c3)nn2)s1 | 520 nM
C#CCCC(=O)Nc1nnc(CCCCc2ccc(NC(=O)Cc3cccc(OC(=O)CCC#C)c3)nn2)s1 | 390 nM
CCCCCNc1cccc(CC(=O)Nc2ccc(CCCCc3nnc(NC(=O)CCCC)s3)nn2)c1 | > 20000 nM
C=CCCOc1cccc(CC(=O)Nc2ccc(CCCCc3nnc(NC(=O)CCC=C)s3)nn2)c1 | 87 nM
CCCCCOc1cccc(CC(=O)Nc2ccc(CCCCc3nnc(NC(=O)C4CC4)s3)nn2)c1 | 36 nM
CCCCCCNc1cccc(CC(=O)Nc2ccc(CCCCc3nnc(NC(=O)CCCC)s3)nn2)c1 | > 20000 nM
C=CCCC(=O)Nc1nnc(CCCCc2ccc(NC(=O)Cc3cccc(OC(=O)CCC=C)c3)nn2)s1 | 140 nM
C=CCCCOc1cccc(CC(=O)Nc2nnc(CCCCc3ccc(NC(=O)CC=C)nn3)s2)c1 | > 5000 nM
C=CCCCOc1cccc(CC(=O)Nc2nnc(CCCCc3ccc(NC(=O)CCC=C)nn3)s2)c1 | 36 nM
CCCCCCOc1cccc(CC(=O)Nc2ccc(CCCCc3nnc(NC(=O)CCCC)s3)nn2)c1 | 19 nM
CCCCCCOc1cccc(CC(=O)Nc2ccc(CCCCc3nnc(NC(=O)C4CC(F)(F)C4)s3)nn2)c1 | 24 nM
CCCCCOc1cccc(CC(=O)Nc2ccc(CCCCc3nnc(NC(=O)CCCC)s3)nn2)c1 | 24 nM
CCCCNc1cccc(CC(=O)Nc2ccc(CCCCc3nnc(NC(=O)CCCC)s3)nn2)c1 | > 20000 nM
CCCCOc1cccc(CC(=O)Nc2ccc(CCCCc3nnc(NC(=O)C4CC(F)(F)C4)s3)nn2)c1 | 68 nM
C=CCCOc1cccc(CC(=O)Nc2ccc(N3CCC(Nc4nnc(NC(=O)CCC=C)s4)CC3)nn2)c1 | 19 nM
C=CCCCCOc1cccc(CC(=O)Nc2ccc(CCCCc3nnc(N)s3)nn2)c1 | 280 nM
CCCCCCCCOc1cccc(CC(=O)Nc2ccc(CCCCc3nnc(NC(=O)CCCC)s3)nn2)c1 | 17 nM
CCCCC(=O)Nc1nnc(CCCCc2ccc(NC(=O)Cc3cccc(O)c3)nn2)s1 | 170 nM

Reference: ChEMBL document CHEMBL5352475, “Design, synthesis, and biological evaluation of novel glutaminase 1 allosteric inhibitors with an alkane chain tail group” (Eur J Med Chem, 2023)
